Source: US10829490B2, “Substituted dihydropyrazino[1 ′,2′:1,5]pyrrolo[2,3-d]pyrimidine-based antiproliferative agents” (G1 Therapeutics, Inc., priority 2016, dated 2020)

Experiments:
CDK4/CycD = CDK4/CycD (Homo sapiens (Human), UniProt P11802); experiment: CDK4/CycD kinase inhibition (Biological Table 1); type: biochemical
CDK6/CycD3 = CDK6/CycD3 (Homo sapiens (Human), UniProt Q00534); experiment: CDK6/CycD3 kinase inhibition (Biological Table 1); type: biochemical
CDK2/CycE = CDK2/CycE (Homo sapiens (Human), UniProt P24941); experiment: CDK2/CycE kinase inhibition (Biological Table 1); type: biochemical
CDK2/CycA = CDK2/CycA (Homo sapiens (Human), UniProt P24941); experiment: CDK2/CycA kinase inhibition (Biological Table 1); type: biochemical
CDK5/p35 = CDK5/p35 (Homo sapiens (Human), UniProt Q00535); experiment: CDK5/p35 kinase inhibition (Biological Table 1); type: biochemical
CDK5/p25 = CDK5/p25 (Homo sapiens (Human), UniProt Q00535); experiment: CDK5/p25 kinase inhibition (Biological Table 2); type: biochemical
CDK7/CycH/MAT1 = CDK7/CycH/MAT1 (Homo sapiens (Human), UniProt P50613); experiment: CDK7/CycH/MAT1 kinase inhibition (Biological Table 2); type: biochemical
CDK9/CycT = CDK9/CycT (Homo sapiens (Human), UniProt P50750); experiment: CDK9/CycT kinase inhibition (Biological Table 2); type: biochemical
CDK4/CyclinD1 = CDK4/CyclinD1 (Homo sapiens (Human), UniProt P11802); experiment: CDK4/cyclinD1 kinase assay, microfluidic kinase detection (Caliper, Nanosyn); type: biochemical; conditions: 12-point dose-response, ATP at Km (200 μM), enzyme 1 nM, incubation 10 hr; read-out: CDK4/Cyclin D1
Description: (§1) Selected compounds disclosed herein were tested in CDK4/cyclinD1, CDK2/CycA and CDK2/cyclinE kinase assays by Nanosyn (Santa Clara, Calif.) to determine their inhibitory effect on these CDKs. The assays were performed using microfluidic kinase detection technology (Caliper Assay Platform). The compounds were tested in 12-point dose-response format in singlicate at Km for ATP. Phosphoacceptor substrate peptide concentration used was 1 μM for all assays and Staurosporine was used as the reference compound for all assays. Specifics of each assay are as described below:
CDK4/CyclinD1: Enzyme concentration: 1 nM; ATP concentration: 200 μM; Incubation time: 10 hr.

CDK6/Cyclin D3 = CDK6/Cyclin D3 (Homo sapiens (Human), UniProt Q00534); experiment: CDK6/Cyclin D3 kinase assay (Biological Table 3); type: biochemical
Description: [Worded in the source for another target; this target is reported under the same test.] as §1, with “assays.” for “assays. Specifics of each assay are as described below:”

CDK2/CyclinE = CDK2/CyclinE (Homo sapiens (Human), UniProt P24941); experiment: CDK2/cyclinE kinase assay, microfluidic kinase detection (Caliper, Nanosyn); type: biochemical; conditions: 12-point dose-response, ATP at Km (100 μM), enzyme 0.28 nM, incubation 1 hr; read-out: CDK2/Cyclin E
Description: as §1
CDK2/CyclinE: Enzyme concentration: 0.28 nM; ATP concentration: 100 μM; Incubation time: 1 hr.

CDK2/CyclinA = CDK2/CyclinA (Homo sapiens (Human), UniProt P24941); experiment: CDK2/CycA kinase assay, microfluidic kinase detection (Caliper, Nanosyn); type: biochemical; conditions: 12-point dose-response, ATP at Km (50 μM), enzyme 0.2 nM, incubation 3 hr; read-out: CDK2/Cyclin A
Description: as §1
CDK2/CyclinA: Enzyme concentration: 0.2 nM; ATP concentration: 50 μM; Incubation time: 3 hr.

CDK9/Cyclin T = CDK9/Cyclin T (Homo sapiens (Human), UniProt P50750); experiment: CDK9/Cyclin T kinase assay (Biological Table 3); type: biochemical
Hs68 cells = experiment: Cell population by DNA content (<2N, G0-G1, S, G2-M) as measure of apoptotic cells; type: cell-based; conditions: at every dose administered (FIG. 4)
Description: FIG. 4 is a bar graph showing the population of cells with a DNA content less than 2N, cells in the G0-G1 phase, cells in the S phase, and cells in the G2-M phase as a way to measure the relative amount of apoptotic cells following administration of control and Compound 28. The population of apoptotic cells after exposure to Compound 28 was greater than 70% at every dose administered. The assay was done in a population of Hs68 cells. * is <2000 events. The Compound number and dose, measured in μM and nM, are shown on the x-axis and the cell population, measured in percent, is shown on the y-axis.

Sequence of CDK9/Cyclin T (P50750 whole entry): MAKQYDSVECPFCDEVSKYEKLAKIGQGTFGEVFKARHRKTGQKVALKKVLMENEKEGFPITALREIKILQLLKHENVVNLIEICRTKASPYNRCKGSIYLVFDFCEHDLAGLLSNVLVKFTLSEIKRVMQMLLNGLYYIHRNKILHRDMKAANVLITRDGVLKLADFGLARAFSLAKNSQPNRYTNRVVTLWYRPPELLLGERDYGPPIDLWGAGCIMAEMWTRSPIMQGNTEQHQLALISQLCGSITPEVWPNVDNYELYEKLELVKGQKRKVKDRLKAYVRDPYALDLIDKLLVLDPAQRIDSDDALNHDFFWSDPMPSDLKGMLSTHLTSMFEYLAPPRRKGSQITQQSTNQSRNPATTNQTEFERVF
Sequence of CDK9/Cyclin T (O60563 whole entry partner): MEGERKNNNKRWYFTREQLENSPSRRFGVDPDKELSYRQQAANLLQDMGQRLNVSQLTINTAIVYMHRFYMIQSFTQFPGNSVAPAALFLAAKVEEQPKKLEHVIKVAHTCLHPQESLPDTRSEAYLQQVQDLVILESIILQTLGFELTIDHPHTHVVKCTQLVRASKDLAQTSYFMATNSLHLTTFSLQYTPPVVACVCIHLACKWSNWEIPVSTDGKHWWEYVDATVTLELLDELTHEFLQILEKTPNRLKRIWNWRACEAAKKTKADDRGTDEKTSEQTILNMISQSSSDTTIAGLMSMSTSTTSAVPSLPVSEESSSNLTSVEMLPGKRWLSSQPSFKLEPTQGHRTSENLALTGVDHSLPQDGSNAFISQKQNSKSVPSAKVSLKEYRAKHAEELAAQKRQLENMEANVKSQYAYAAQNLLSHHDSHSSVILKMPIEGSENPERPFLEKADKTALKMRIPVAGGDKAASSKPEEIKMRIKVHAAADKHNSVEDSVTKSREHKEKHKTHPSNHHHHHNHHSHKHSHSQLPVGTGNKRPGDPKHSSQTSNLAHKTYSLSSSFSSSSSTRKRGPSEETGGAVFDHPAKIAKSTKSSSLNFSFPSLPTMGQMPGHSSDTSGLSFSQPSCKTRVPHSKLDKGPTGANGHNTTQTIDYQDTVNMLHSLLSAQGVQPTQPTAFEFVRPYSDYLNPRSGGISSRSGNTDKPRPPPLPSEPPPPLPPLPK
Sequence of CDK9/CycT (P50750 whole entry): as the sequence (P50750 whole entry) above
Sequence of CDK9/CycT (O60563 whole entry partner): as the sequence (O60563 whole entry partner) above
Sequence of CDK6/Cyclin D3 (Q00534 whole entry): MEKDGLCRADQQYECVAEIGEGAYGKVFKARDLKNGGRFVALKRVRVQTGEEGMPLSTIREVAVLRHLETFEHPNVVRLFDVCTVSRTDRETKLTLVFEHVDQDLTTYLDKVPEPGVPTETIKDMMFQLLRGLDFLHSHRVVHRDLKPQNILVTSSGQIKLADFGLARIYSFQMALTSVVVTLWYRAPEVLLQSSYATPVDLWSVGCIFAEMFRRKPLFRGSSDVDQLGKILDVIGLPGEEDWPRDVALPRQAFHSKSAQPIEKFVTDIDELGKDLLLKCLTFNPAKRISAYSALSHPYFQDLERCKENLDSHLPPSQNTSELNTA
Sequence of CDK6/Cyclin D3 (P30281 whole entry partner): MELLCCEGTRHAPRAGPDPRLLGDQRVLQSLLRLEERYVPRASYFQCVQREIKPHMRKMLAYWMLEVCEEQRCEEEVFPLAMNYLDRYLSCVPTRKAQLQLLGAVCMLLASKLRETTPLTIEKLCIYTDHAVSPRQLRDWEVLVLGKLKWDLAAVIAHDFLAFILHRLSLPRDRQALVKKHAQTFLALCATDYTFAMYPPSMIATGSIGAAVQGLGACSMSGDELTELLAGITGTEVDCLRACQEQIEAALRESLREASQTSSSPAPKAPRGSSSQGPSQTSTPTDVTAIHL
Sequence of CDK6/CycD3 (Q00534 whole entry): as the sequence (Q00534 whole entry) above
Sequence of CDK6/CycD3 (P30281 whole entry partner): as the sequence (P30281 whole entry partner) above
Sequence of CDK4/CyclinD1 (P11802 whole entry): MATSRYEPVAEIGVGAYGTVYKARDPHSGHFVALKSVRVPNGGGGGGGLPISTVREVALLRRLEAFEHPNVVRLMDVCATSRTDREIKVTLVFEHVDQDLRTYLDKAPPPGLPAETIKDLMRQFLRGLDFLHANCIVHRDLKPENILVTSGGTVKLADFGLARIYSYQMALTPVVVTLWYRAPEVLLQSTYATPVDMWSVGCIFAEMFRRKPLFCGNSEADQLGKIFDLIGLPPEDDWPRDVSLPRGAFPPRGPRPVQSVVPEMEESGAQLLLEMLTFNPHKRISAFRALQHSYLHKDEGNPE
Sequence of CDK4/CyclinD1 (P24385 whole entry partner): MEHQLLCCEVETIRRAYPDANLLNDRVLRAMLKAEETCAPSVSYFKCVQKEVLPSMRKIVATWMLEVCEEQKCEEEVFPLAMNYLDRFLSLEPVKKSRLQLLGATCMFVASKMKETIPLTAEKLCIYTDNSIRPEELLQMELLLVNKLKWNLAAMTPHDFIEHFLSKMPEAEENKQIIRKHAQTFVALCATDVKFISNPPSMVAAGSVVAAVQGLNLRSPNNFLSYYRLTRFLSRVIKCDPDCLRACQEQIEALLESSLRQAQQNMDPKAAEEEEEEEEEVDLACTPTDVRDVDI
Sequence of CDK4/CycD (P11802 whole entry): as the sequence (P11802 whole entry) above
Sequence of CDK4/CycD (P24385 whole entry partner): as the sequence (P24385 whole entry partner) above
Sequence of CDK5/p25 (Q00535 whole entry): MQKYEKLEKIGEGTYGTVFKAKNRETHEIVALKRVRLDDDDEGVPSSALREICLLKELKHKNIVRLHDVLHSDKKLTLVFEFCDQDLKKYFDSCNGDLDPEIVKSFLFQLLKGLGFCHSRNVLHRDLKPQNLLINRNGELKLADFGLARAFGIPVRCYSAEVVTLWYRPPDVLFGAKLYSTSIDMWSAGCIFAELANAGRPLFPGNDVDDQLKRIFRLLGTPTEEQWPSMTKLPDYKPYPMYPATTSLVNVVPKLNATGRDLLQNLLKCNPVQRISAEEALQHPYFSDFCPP
Sequence of CDK5/p35 (Q00535 whole entry): as above
Sequence of CDK5/p35 (Q15078 whole entry partner): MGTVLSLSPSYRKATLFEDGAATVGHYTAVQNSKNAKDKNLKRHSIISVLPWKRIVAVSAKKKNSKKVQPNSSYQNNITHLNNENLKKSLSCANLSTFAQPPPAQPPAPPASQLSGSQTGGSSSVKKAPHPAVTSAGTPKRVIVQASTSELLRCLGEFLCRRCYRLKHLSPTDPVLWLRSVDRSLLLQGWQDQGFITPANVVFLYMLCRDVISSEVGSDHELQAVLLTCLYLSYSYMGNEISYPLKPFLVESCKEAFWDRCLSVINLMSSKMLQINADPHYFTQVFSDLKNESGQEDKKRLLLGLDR
Sequence of CDK7/CycH/MAT1 (P50613 whole entry): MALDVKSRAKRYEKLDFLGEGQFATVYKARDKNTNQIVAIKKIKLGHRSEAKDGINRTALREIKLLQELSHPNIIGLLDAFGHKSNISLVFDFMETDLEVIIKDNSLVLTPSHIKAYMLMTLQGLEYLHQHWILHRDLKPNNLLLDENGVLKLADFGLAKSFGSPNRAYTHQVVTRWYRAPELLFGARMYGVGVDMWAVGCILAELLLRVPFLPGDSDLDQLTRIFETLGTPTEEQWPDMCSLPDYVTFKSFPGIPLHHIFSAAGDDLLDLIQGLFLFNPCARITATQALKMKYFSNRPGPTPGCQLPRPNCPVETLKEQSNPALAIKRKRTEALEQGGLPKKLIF
Sequence of CDK7/CycH/MAT1 (P51946 whole entry partner): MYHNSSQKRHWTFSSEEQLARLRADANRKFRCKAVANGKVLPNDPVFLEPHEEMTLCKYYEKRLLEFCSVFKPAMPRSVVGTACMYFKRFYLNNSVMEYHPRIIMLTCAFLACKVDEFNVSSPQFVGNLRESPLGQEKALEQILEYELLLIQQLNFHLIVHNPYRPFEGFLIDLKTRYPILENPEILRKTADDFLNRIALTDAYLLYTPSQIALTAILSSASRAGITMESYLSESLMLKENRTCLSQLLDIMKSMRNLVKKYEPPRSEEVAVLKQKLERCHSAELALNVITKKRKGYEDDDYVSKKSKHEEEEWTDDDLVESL
Sequence of CDK7/CycH/MAT1 (P51948 whole entry partner): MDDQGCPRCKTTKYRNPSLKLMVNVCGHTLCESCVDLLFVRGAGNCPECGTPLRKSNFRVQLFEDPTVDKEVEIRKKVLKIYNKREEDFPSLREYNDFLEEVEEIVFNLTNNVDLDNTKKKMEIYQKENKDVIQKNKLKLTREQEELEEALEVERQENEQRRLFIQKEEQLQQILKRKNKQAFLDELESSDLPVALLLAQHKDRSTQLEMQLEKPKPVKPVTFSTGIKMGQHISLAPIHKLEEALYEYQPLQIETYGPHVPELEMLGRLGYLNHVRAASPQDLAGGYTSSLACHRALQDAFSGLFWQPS

Row | SMILES | IC50 (CDK4/CycD) [µM] | IC50 (CDK6/CycD3) [µM] | IC50 (CDK2/CycE) [µM] | IC50 (CDK2/CycA) [µM] | IC50 (CDK5/p35) [µM] | IC50 (CDK5/p25) [µM] | IC50 (CDK9/CycT) [µM] | IC50 (CDK4/CyclinD1) [µM] | IC50 (CDK6/Cyclin D3) [µM] | IC50 (CDK2/CyclinE) [µM] | IC50 (CDK2/CyclinA) [µM] | IC50 (CDK9/Cyclin T) [µM] | IC50 (CDK7/CycH/MAT1) [µM] | population of apoptotic cells (Hs68 cells)
1 | CN1CCN(c2ccc(Nc3ncc4c(n3)N3C(CC4=O)C(=O)NCC3(C)C)nc2)CC1 (stereo not drawn) [Compound 1, 10,10-dimethyl-2-((5-(4-methylpiperazin-1-yl)pyridin-2-yl)amino)-6,6a,9,10-tetrahydro-5H-pyrazino[1′,2′:1,6]pyrido[2,3-d]pyrimidine-5,7(8H)-dione] | 8.06 | 30.6 | > 100 | > 100 | > 100 | > 100 | > 100 | – | – | – | – | – | > 100 | –
2 | CN1CCN(c2ccc(Nc3ncc4c(n3)N3C(CC4)C(=O)NCC3(C)C)nc2)CC1 (stereo not drawn) [Compound 2, 10,10-dimethyl-2-((5-(4-methylpiperazin-1-yl)pyridin-2-yl)amino)-6,6a,9,10-tetrahydro-5H-pyrazino[1′,2′:1,6]pyrido[2,3-d]pyrimidin-7(8H)-one] | > 100 | > 100 | > 100 | > 100 | > 100 | > 100 | > 100 | – | – | – | – | – | – | –
3 | CN1CCN(c2ccc(Nc3ncc4c(n3)N3C(CC4=O)C(=O)NCC34CCCCC4)nc2)CC1 (stereo not drawn) [Compound 3] | > 100 | > 100 | > 100 | > 100 | > 100 | > 100 | > 100 | – | – | – | – | – | > 100 | –
4 | CN1CCN(c2ccc(Nc3ncc4c(n3)N3C(CC4)C(=O)NCC34CCCCC4)nc2)CC1 (stereo not drawn) [Compound 4, 2′-((5-(4-methylpiperazin-1-yl)pyridin-2-yl)amino)-6′,6a′,8′,9′-tetrahydrospiro[cyclohexane-1,10′-pyrazino[1′,2′:1,6]pyrido[2,3-d]pyrimidin]-7′(5′H)-one] | 47.7 | 75.9 | > 100 | 86.4 | > 100 | > 100 | > 100 | – | – | – | – | – | > 100 | –
5 | CN1CCN(c2ccc(Nc3ncc4c(n3)N3C(CC4=O)C(=O)NCC34CCCC4)nc2)CC1 (stereo not drawn) [Compound 5, 2′-((5-(4-methylpiperazin-1-yl)pyridin-2-yl)amino)-6′,6a′,8′,9′-tetrahydrospiro[cyclopentane-1,10′-pyrazino[1′,2′:1,6]pyrido[2,3-d]pyrimidine]-5′,7′-dione] | > 100 | > 100 | > 100 | > 100 | > 100 | > 100 | > 100 | – | – | – | – | – | > 100 | –
6 | CN1CCN(c2ccc(Nc3ncc4c(n3)N3CCNC(=O)C3CC4=O)nc2)CC1 (stereo not drawn) [Compound 6, 2-((5-(4-methylpiperazin-1-yl)pyridin-2-yl)amino)-6,6a,9,10-tetrahydro-5H-pyrazino[1′,2′:1,6]pyrido[2,3-d]pyrimidine-5,7(8H)-dione] | 14.4 | 50.4 | > 100 | > 100 | > 100 | > 100 | > 100 | – | – | – | – | – | > 100 | –
7 | CCOC(=O)C1C(=O)c2cnc(Nc3ccc(N4CCN(C)CC4)cn3)nc2N2CCCCC12 (stereo not drawn) [Compound 8, ethyl 2-((5-(4-methylpiperazin-1-yl)pyridin-2-yl)amino)-5-oxo-6,6a,7,8,9,10-hexahydro-5H-pyrimido[5,4-c]quinolizine-6-carboxylate] | 4.1 | 3.5 | > 100 | > 100 | > 100 | > 100 | > 100 | – | – | – | – | – | > 100 | –

Further lines, with some results ahead:

Row | IC50 (CDK4/CycD) [µM] | IC50 (CDK6/CycD3) [µM] | IC50 (CDK2/CycE) [µM] | IC50 (CDK2/CycA) [µM] | IC50 (CDK5/p35) [µM] | IC50 (CDK5/p25) [µM] | IC50 (CDK9/CycT) [µM] | IC50 (CDK4/CyclinD1) [µM] | IC50 (CDK6/Cyclin D3) [µM] | IC50 (CDK2/CyclinE) [µM] | IC50 (CDK2/CyclinA) [µM] | IC50 (CDK9/Cyclin T) [µM] | SMILES | IC50 (CDK7/CycH/MAT1) [µM] | population of apoptotic cells (Hs68 cells)
8 | 4.7 | 1.8 | > 100 | > 100 | > 100 | > 100 | > 100 | – | – | – | – | – | CN1CCN(c2ccc(Nc3ncc4c(n3)N3CCCCC3CC4=O)nc2)CC1 (stereo not drawn) [Compound 7, 2-((5-(4-methylpiperazin-1-yl)pyridin-2-yl)amino)-6,6a,7,8,9,10-hexahydro-5H-pyrimido[5,4-c]quinolizin-5-one] | > 100 | –
9 | 2.6 | 1.8 | > 100 | > 100 | > 100 | > 100 | > 100 | – | – | – | – | – | CN1CCN(c2ccc(Nc3ncc4c(n3)N3C(=NCCC35CCCCC5)C=C4)nc2)CC1 [Compound 9, N-(5-(4-methylpiperazin-1-yl)pyridin-2-yl)-8′,9′-dihydrospiro[cyclohexane-1,10′-pyrido[1,6-a:2,3-d′]dipyrimidin]-2′-amine] | > 100 | –
10 | – | – | – | – | – | – | – | 0.02 | 0.06 | > 100 | 13.5 | 1 | CN1CCN(c2cnc(Nc3ncc4cc5n(c4n3)C3(CCCCC3)CNC5=O)nc2)CC1 [Compound 28, 2′-((5-(4-Methylpiperazin-1-yl)pyrimidin-2-yl)amino)-7′,8′-dihydro-6′H-spiro[cyclohexane-1,9′-pyrazino[1′,2′:1,5]pyrrolo [2,3-d]pyrimidin]-6′-one] | – | greater than 70%
11 | – | – | – | – | – | – | – | 0.09 | 0.5 | 5 | 2 | 0.05 | O=C1NCC2(CCCCC2)n2c1cc1cnc(N[C@H]3CC[C@@H](N4CCN(CC5CC5)CC4)CC3)nc12 [Compound 40, 2′-(((1S,4S)-4-(4-(Cyclopropylmethyl)piperazin-1-yl)cyclohexyl)amino)-7′,8′-dihydro-6′H-spiro [cyclohexane-1,9′-pyrazino[1′,2′:1,5]pyrrolo[2,3-d]pyrimidin]-6′-one] | – | –
12 | – | – | – | – | – | – | – | 0.14 | 0.8 | 6 | 2 | 0.07 | CN1CCN([C@H]2CC[C@@H](Nc3ncc4cc5n(c4n3)C3(CCCCC3)CNC5=O)CC2)CC1 [Compound 41, 2′-(((1S,4S)-4-(4-Methylpiperazin-1-yl)cyclohexyl)amino)-7′,8′-dihydro-6′H-spiro[cyclohexane-1,9′-pyrazino[1′,2′:1,5]pyrrolo[2,3-d]pyrimidin]-6′-one] | – | –
